Article PMC6045618, “Novel natural killer cell-mediated cancer immunotherapeutic activity of anisomycin against hepatocellular carcinoma cells” (Scientific Reports, 2018)

How the values were obtained:
SNU449 cells [1] = assay: EZ-Cytox Enhanced cell viability assay, SNU449; assay type: cell-based; conditions: 48 h exposure, read-out: IC50, cell cytotoxicity / proliferation inhibition
Method: (§1) HepG2 cells were purchased from the American Type Culture Collection (ATCC, Manassas, VA, USA), and Huh7 cells and SNU449 cells were purchased from the Korean Cell Line Bank (Seoul, Korea). Cells were cultured according to the suppliers’ instructions. HepG2 cells were cultured in Eagle’s minimum essential medium (ATCC) containing 10% FBS (Life Technologies), 2 mM L-glutamine, and penicillin-streptomycin (Life Technologies) at 37 °C in 5% CO2. Huh7 and SNU449 cells were cultured in RPMI1640 (Life Technologies) containing 10% FBS (Life Technologies), 2 mM L-glutamine, and penicillin-streptomycin (Life Technologies) at 37 °C in 5% CO2. Anisomycin was purchased from Sigma-Aldrich (St. Louis, MO, USA) and dissolved at a concentration of 20 mg/mL in 100% DMSO as a stock solution. The stock solution was stored at −20 °C and diluted in medium before each experiment. […]
(§2) Cell proliferation was assessed using an EZ-Cytox Enhanced cell viability assay kit from ITSBIO (Seoul, Republic of Korea). […] At the end of the incubation, the absorbance in each well was measured at 450 nm using a microplate reader. The relative cell viability (%) was calculated using the equation OD^T/OD^C × 100% (where OD^T represents the absorbance of the treatment group, and OD^c represents the absorbance of the control group). […]

HepG2 cells [2] = assay: Annexin V / 7-ADD apoptosis flow cytometry, HepG2; assay type: cell-based; conditions: 48 h
Method: (§3) To analyse apoptotic cells, we stained cells with anti-human CD56-allophycocyanin monoclonal antibodies, 7ADD, and Annexin V (BioLegend, San Diego, CA, USA) following the protocol provided by the manufacturer. Briefly, we stained cells with anti-human CD56-allophycocyanin monoclonal antibodies on ice for 10 min, washed cells with an appropriate volume of chilled Annexin V binding buffer (BioLegend), and resuspended cells in chilled Annexin V binding buffer (BioLegend) in the presence of Annexin V and 7ADD. The cells were incubated on ice for 30 min, washed with chilled Annexin V binding buffer, and analysed. Staining data were collected using a FACSCanto II Cytometer (BD Biosciences).

[3] = system: HepG2, Huh7, and SNU449 cells; assay: Light microscopy of cell density; assay type: cell-based; conditions: 0.2 μM, 2 days
Method: HepG2 cells were purchased from the American Type Culture Collection (ATCC, Manassas, VA, USA), and Huh7 cells and SNU449 cells were purchased from the Korean Cell Line Bank (Seoul, Korea). Cells were cultured according to the suppliers’ instructions. HepG2 cells were cultured in Eagle’s minimum essential medium (ATCC) containing 10% FBS (Life Technologies), 2 mM L-glutamine, and penicillin-streptomycin (Life Technologies) at 37 °C in 5% CO2. Huh7 and SNU449 cells were cultured in RPMI1640 (Life Technologies) containing 10% FBS (Life Technologies), 2 mM L-glutamine, and penicillin-streptomycin (Life Technologies) at 37 °C in 5% CO2. Anisomycin was purchased from Sigma-Aldrich (St. Louis, MO, USA) and dissolved at a concentration of 20 mg/mL in 100% DMSO as a stock solution. The stock solution was stored at −20 °C and diluted in medium before each experiment. […] Antibodies against caspase3, PARP, and β-actin were purchased from Cell Signaling Technology (Danvers, MA, USA).

SNU449 cells [4] = assay: Annexin V / 7-ADD apoptosis flow cytometry, SNU449; assay type: cell-based; conditions: 48 h
Method: as §3

[5] = system: MHC-I molecules (HLA-A, -B, and -C); assay: Flow cytometry of MHC-I (HLA-A, -B, -C) on HCC cells; assay type: cell-based; conditions: 0.2 μM 48 h, HepG2, SNU449, Huh7 cells
HepG2 cells [6] = assay: EZ-Cytox Enhanced cell viability assay, HepG2; assay type: cell-based; conditions: 48 h exposure, read-out: IC50, cell cytotoxicity / proliferation inhibition
Method: as §1, §2

Huh7 cells [7] = assay: Annexin V / 7-ADD apoptosis flow cytometry, Huh7; assay type: cell-based; conditions: 48 h
Method: as §3

HepG2 cells [8] = assay: Apoptosis of anisomycin-pre-treated HepG2 cells cocultured with NK cells (flow cytometry); assay type: cell-based, human; conditions: HepG2 pre-treated 0.2 μM 48 h, then NK cells 4 h, CD56-negative gate
Excerpt: Peripheral blood from healthy donors was obtained from the Red Cross Blood Center. We followed the guidelines of the Red Cross, and all methods and protocols involving the use of human peripheral blood were approved by the Institutional Review Board of the Red Cross. Based on the Red Cross guidelines, informed consent for study participation was obtained, and donor information was not provided. NK cells were isolated from whole blood to more than 95% purity by negative selection using a RosetteSep Human NK Cell Enrichment Cocktail (StemCell Technologies, Vancouver, Canada) according to the manufacturer’s protocol. The isolated NK cells were washed in HBSS plus 4% foetal bovine serum (FBS; Life Technologies, Carlsbad, CA, USA) and resuspended in MEM-α (Life Technologies) containing 20% FBS (Life Technologies) and penicillin-streptomycin (Life Technologies) at 37 °C in 5% CO2.
To analyse apoptotic cells, we stained cells with anti-human CD56-allophycocyanin monoclonal antibodies, 7ADD, and Annexin V (BioLegend, San Diego, CA, USA) following the protocol provided by the manufacturer. […] The cells were incubated on ice for 30 min, washed with chilled Annexin V binding buffer, and analysed. […]

CD58 = assay: Western blot of CD58 in HCC cells; assay type: cell-based; conditions: 0.2 μM, HepG2, Huh7, SNU449 cells
HepG2 carcinoma = assay: HepG2 tumour xenograft in NOD-SCID mice with or without human primary NK cells; assay type: in vivo, mouse; conditions: 10 mg/kg i.p.
Excerpt: NOD.CB17-Prkdc^scid/NCrCrl mice were purchased from Charles River Laboratories, Inc. (Wilmington, MA, USA). We used 6-8-week-old female mice in all experiments; these mice were housed in a pathogen-free animal facility. All animal experiments were approved by the Institutional Animal Use and Care Committee of the Korea Research Institute of Bioscience and Biotechnology and performed in accordance with the Guide for the Care and Use of Laboratory Animals published by the US National Institutes of Health.
Six-week-old female NOD.CB17-Prkdc^scid/NCrCrl mice were purchased from Charles River Laboratories, Inc. Xenograft models were established by subcutaneous injection of 1 × 10^6 HepG2 cells into the right flanks of the mice. Five days after inoculation, the mice were randomly separated into groups of four. Anisomycin (10 mg/kg) was administered from day 0 to 5 and from day 15 to 20 after initiation of anisomycin treatment via the intraperitoneal (i.p) route. NK cells (5 × 10^6 cells/mouse) were transferred into mice two times on days 6 and 11 during the treatment pause period. Tumours were measured every 3 days using callipers, and their volumes were calculated according to the following formula: volume (mm^3) = (d^2 × D)/2, where d and D represent the shortest and longest tumour diameters, respectively.

[9] = system: cleaved caspase-3, cleaved PARP; assay: Immunoblot of cleaved caspase-3 and cleaved PARP in sorted HepG2 cells; assay type: cell-based; conditions: HepG2, 0.2 μM 48 h
Method: HepG2 cells were cultured in the presence or absence of 0.2 µM anisomycin for 2 days and harvested for cell counts. Then, 1 × 10^7 HepG2 cells were cocultured with 1 × 10^7 NK cells for 2 h and harvested by centrifugation at 1,000 rpm for 5 min. Cells were stained with anti-human CD56 monoclonal antibodies (BioLegend), washed, and resuspended in PBS containing HBSS supplemented with 4% FBS (Gibco). CD56-negative HepG2 cells were isolated to nearly 100% purity using an Aria cytometer (BD Biosciences).
Cells were suspended in modified RIPA lysis buffer (150 mM NaCl, 1 mM EDTA, 1% Triton X-100, 1% NP-40, 0.5% sodium deoxycholate, 0.1% sodium dodecyl sulphate [SDS], and 50 mM Tris-HCl [pH 7.4]) containing a protease inhibitor cocktail (Roche, Mannheim, Germany) and phosphatase inhibitors (1 mM sodium fluoride and 2 mM sodium orthovanadate) on ice for 30 min and centrifuged at 15,000 × g for 30 min to collect whole-cell lysates. Proteins (10–20 µg) were then separated by SDS-polyacrylamide gel electrophoresis on 8‒12% gels and transferred to polyvinylidene difluoride membranes (Millipore, Bedford, MA, USA). Western blotting was performed with primary antibodies against caspase3, PARP, and β-actin (Cell Signaling Technology) and peroxidase-conjugated anti-mouse or anti-rabbit secondary antibodies. Proteins were visualized with Enhanced Chemiluminescence Plus reagents (Amersham Biosciences, Piscataway, NJ, USA).

Huh7 cells [10] = assay: EZ-Cytox Enhanced cell viability assay, Huh7; assay type: cell-based; conditions: 48 h exposure, read-out: IC50, cell cytotoxicity / proliferation inhibition
Method: as §1, §2

SMILES: COc1ccc(C[C@H]2NC[C@H](O)[C@H]2OC(C)=O)cc1 [anisomycin]
- IC50 (SNU449 cells [1]): 138 nM
- Annexin V and 7-ADD double-positive cells (apoptotic cells) (HepG2 cells [2]; HepG2, 0.1 μM): 1.23%
- Annexin V and 7-ADD double-positive cells (apoptotic cells) (HepG2 cells [2]; HepG2, 0.2 μM): 2.81%
- Cell densities observed by light microscopy [3]: reduced the cell densities
- Annexin V and 7-ADD double-positive cells (apoptotic cells) (SNU449 cells [4]; SNU449, 0.1 μM): 2.24%
- Annexin V and 7-ADD double-positive cells (apoptotic cells) (SNU449 cells [4]; SNU449, 0.2 μM): 4.94%
- MHC-I molecules (HLA-A, -B, -C) at the protein level [5]: significantly downregulated
- IC50 (HepG2 cells [6]): 82.2 nM
- Annexin V and 7-ADD double-positive cells (apoptotic cells) (Huh7 cells [7]; Huh7, 0.1 μM): 4.59%
- Annexin V and 7-ADD double-positive cells (apoptotic cells) (Huh7 cells [7]; Huh7, 0.2 μM): 6.85%
- Annexin V and 7ADD double-positive cells (apoptotic cells) after coculture with NK cells (HepG2 cells [8]): 14.00%
- Expression of CD58 (western blot) (CD58): increased the expression of CD58 in all three HCC cell lines
- Tumour suppression in the presence of human primary NK cells (HepG2 carcinoma; days 0 to 5 and 15 to 20, NK cells 5 × 10^6 cells/mouse on days 6 and 11): synergistically enhanced
- Body weight loss and abnormal behaviours of treated mice (HepG2 carcinoma; days 0 to 5 and 15 to 20, NOD-SCID mice): did not show significant body weight loss or any abnormal behaviours
- HepG2 tumour size in mice (HepG2 carcinoma; days 0 to 5 and 15 to 20, NOD-SCID mice, without NK cells): significantly reduced HepG2 tumour size
- Cleaved PARP ([9]; anisomycin and NK cells): substantially increased
- Cleaved caspase-3 protein after exposure to NK cells ([9]; then NK cells 2 h): synergistically increased
- Level of the cleaved form of caspase-3 ([9]; with or without NK cell treatment): significantly increased
- IC50 (Huh7 cells [10]): 118 nM
